For one assay, the system named is Cercospora beticola. Kind of assay: Fungicidal control of leaf spot on beets (Cercospora beticola), protective spray on sugar beet seedlings. Type of assay: in vivo. Conditions: sugar beet seedlings ACH-31, sprayed before inoculation, untreated plants infected to 90%. The procedure: The active compounds, separately or together, were formulated as a 10% emulsion in a mixture of 70% by weight of cyclohexanone, 20% by weight of Nekanil® LN (Lutensol® AP6, wetting agent having emulsifying and dispersant action based on ethoxylated alkylphenols) and 10% by weight of Wettol® EM (nonionic emulsifier based on ethoxylated castor oil) and diluted with water to the desired concentration. Young sugar beet seedlings of the cultivar “ACH-31” were grown in pots to the 2 to 4 leaf stage. These plants were sprayed to runoff with an aqueous suspension, containing the concentration of active ingredient mentioned in the table below, prepared from a stock solution containing 5% of the active ingredient, 94% cyclohexanone and 1% emulsifier (Tween 20). After the plants had dried (3–5 h), they were inoculated with a spore suspension of Cercospora beticola in an aqueous solution of 0.5% gelatine. Then the trial plants were immediately transferred to a humid chamber with 18–23° C. and a relative humidity close to 100% and kept there for 5 days. For a period of further 10–14 days a cultivation in a greenhouse followed at 21–23° C. and a relative humidity about 95%. Then the extent of fungal attack on the leaves was visually assessed as % diseased leaf area.

The test system of assay [1] is cucumber mildew (Sphaerotheca fuliginea). In words: Protective action on cucumber mildew, cucumber seedlings. Format: in vivo. Conditions: 250 ppm, inoculated 20 hours after spraying, assessed after 7 days, untreated plants infected to 90%. The text has this: The active compounds, separately or together, were formulated as a 10% emulsion in a mixture of 70% by weight of cyclohexanone, 20% by weight of Nekanil® LN (Lutensol® AP6, wetting agent having emulsifying and dispersant action based on ethoxylated alkylphenols) and 10% by weight of Wettol® EM (nonionic emulsifier based on ethoxylated castor oil) and diluted with water to the desired concentration.
Leaves of pot grown cucumber seedlings of the “Chinesische Schlange” variety were sprayed to runoff with aqueous liquors made from a stock solution consisting of 10% of active ingredient, 85% of cyclohexanone, and 5% of emulsifier. 20 hours after the sprays-on layer had dried, the plants were inoculated with a aqueous spore suspension of cucumber mildew (Sphaerotheca fuliginea). The plants were then placed for 7 days in the greenhouse at 20 to 24° C. and a relative humidity of 60 to 80%. The extent of fungus spread was assessed as %-attack of the whole leaf surface.

Regarding `COc1cc(F)cc(F)c1-c1c(Cl)nc2ncnn2c1NC(C)C(F)(F)F` (stereo not drawn) [I-38, 5-chloro-6-(4,6-difluoro-2-methoxyphenyl)-7-(1,1,1-trifluoroprop-2-yl)amino-[1,2,4]-triazolo[1,5-α]pyrimidine], the “infection (% diseased leaf area)” value in the assay with Cercospora beticola (50 ppm) and with Cercospora beticola (200 ppm) was “not more than 7%” each time.

Turning to `COc1cc(F)cc(F)c1-c1c(Cl)nc2ncnn2c1NC(C)C(F)(F)F` (stereo not drawn) [I-38B, 5-chloro-6-(4,6-difluoro-2-methoxyphenyl)-7-(1,1,1-trifluoroprop-2-yl)amino-[1,2,4]-triazolo[1,5-α]pyrimidine], the “infection (%-attack of the whole leaf surface)” value in assay [1] is reported as “no infection”.

These data come from US7038047B2, “Substituted 6-(2-methoxyphenyl) triazolopyrimides as fungicides” (BASF Aktiengesellschaft, priority 2001, dated 2006).
